Assay results as given in paper PMC10821124, “Dimeric 3,5-Bis(benzylidene)-4-piperidones: Tumor-Selective Cytotoxicity and Structure-Activity Relationships” (Medicines, 2024).

Assays:
[1] = tested on: human promyelocytic leukemia HL-60 cells; assay: Cytotoxicity, MTT method, HL-60 cells; assay type: cell-based; details: for CC50: Homo sapiens, HL-60, 48 h, MTT, mean ± SD, read-out: CC50 HL-60; for SI (selectivity index) HL-60: average CC50 non-malignant cells / CC50 HL-60
Description: (§1) Human promyelocytic leukemia [HL-60 (RCB3683)] (purchased from Riken Cell Bank, Tsukuba, Japan) was cultured at 37 °C in RPMI1640 medium (Fujifilm Wako Pure Chemical Co., Osaka, Japan) supplemented with 10% heat (56 °C, 30 min) inactivated FBS (Sigma-Aldrich Inc. St. Louis, MO, USA), 100 U/mL penicillin G, and 100 µg/mL streptomycin sulfate in a humidified 5% CO2 incubator (MCO-170 AICUVD-P, Panasonic Healthcare Co., Ltd., Gunma, Japan). Human oral squamous cell carcinoma (OSCC) cell lines derived from tongue [HSC-2 (RCB1945), HSC-3 (RCB1975), HSC-4 (RCB1902)] (Riken Cell Bank), and human normal oral cells (gingival fibroblasts, HGF; pulp cell, HPC; periodontal ligament fibroblast, HPLF), established from the first premolar extracted tooth in the lower jaw and periodontal tissues of a child, according to the guidelines of Meikai University Ethic Committee (No. A0808), were cultured in DMEM medium (Fujifilm Wako Pure Chemical Co.) supplemented with 10% FBS and antibiotics. The compounds in Series 2–4 were evaluated against HL-60, HSC-2, HSC-3, HSC-4, HGF, HPC, and HPLF cells based on a literature procedure, as described previously. In brief, near confluent cells were incubated in triplicate for 48 h at 37 °C with different concentrations ([…], 6.3, 12.5, 25, 50, 100 µM) of the compounds; then, viable cell numbers were measured using the MTT method. From the dose–response curve, a 50% cytotoxic concentration (CC50) was determined. All samples were dissolved in dimethylsulfoxide (DMSO). The toxicity of DMSO alone was calculated and subtracted. The CC50 values were determined from dose–response curves.

[2] = tested on: human oral squamous cell carcinoma HSC-2 cells; assay: Cytotoxicity, MTT method, HSC-2 cells; assay type: cell-based; details: for CC50: Homo sapiens, HSC-2, 48 h, MTT, mean ± SD, read-out: CC50 HSC-2; for SI (selectivity index) HSC-2: average CC50 non-malignant cells / CC50 HSC-2
Description: as §1

[3] = tested on: human oral squamous cell carcinoma HSC-3 cells; assay: Cytotoxicity, MTT method, HSC-3 cells; assay type: cell-based; details: for CC50: Homo sapiens, HSC-3, 48 h, MTT, mean ± SD, read-out: CC50 HSC-3; for SI (selectivity index) HSC-3: average CC50 non-malignant cells / CC50 HSC-3
Description: as §1

[4] = tested on: human oral squamous cell carcinoma HSC-4 cells; assay: Cytotoxicity, MTT method, HSC-4 cells; assay type: cell-based; details: for CC50: Homo sapiens, HSC-4, 48 h, MTT, mean ± SD, read-out: CC50 HSC-4; for SI (selectivity index) HSC-4: average CC50 non-malignant cells / CC50 HSC-4
Description: as §1

[5] = Cytotoxicity, MTT method, HGF non-malignant cells; assay type: cell-based, human; details: human, gingival fibroblasts (HGF), non-malignant, mean ± SD
Description: as §1

[6] = Cytotoxicity, MTT method, HPC non-malignant cells; assay type: cell-based, human; details: human, pulp cells (HPC), non-malignant, mean ± SD
Description: as §1

[7] = Cytotoxicity, MTT method, HPLF non-malignant cells; assay type: cell-based, human; details: human, periodontal ligament fibroblasts (HPLF), non-malignant, mean ± SD
Description: as §1

[8] = tested on: human tumour cell lines HL-60, HSC-2, HSC-3, HSC-4; assay: Cytotoxicity, average over the four human tumour cell lines; assay type: cell-based; details: for CC50: Homo sapiens, average of HL-60, HSC-2, HSC-3, HSC-4, read-out: AVE. CC50, human tumour cell lines; for AVE SI: average of the four SI values
Description: as §1

[9] = Cytotoxicity, average over the three human normal cells; assay type: cell-based; details: human, average of HGF, HPC, HPLF; read-out: AVE CC50, human normal cells
Description: as §1

[10] = tested on: human normal cells HGF, HPC, HPLF; assay: as above; assay type: cell-based; details: average of HGF, read-out: AVE CC50, human normal cells
Description: as §1

Row | SMILES | CC50 [1] [µM] | SI (selectivity index) HL-60 [1] | CC50 [2] [µM] | SI (selectivity index) HSC-2 [2] | CC50 [3] [µM] | SI (selectivity index) HSC-3 [3] | CC50 [4] [µM] | SI (selectivity index) HSC-4 [4] | CC50 at 48 h [5] [µM] | CC50 at 48 h [6] [µM] | CC50 at 48 h [7] [µM] | CC50 [8] [µM] | AVE SI [8] | CC50 at 48 h [9] [µM] | CC50 [10] [µM]
1 | O=C1/C(=C/c2ccc(Cl)cc2)CN(C(=O)C(=O)N2C/C(=C\c3ccc(Cl)cc3)C(=O)/C(=C/c3ccc(Cl)cc3)C2)C/C1=C\c1ccc(Cl)cc1 [Compound 2c] | 4.4 ± 0.17 | 16.9 | 3.7 ± 0.6 | 20.1 | 11 ± 1.1 | 6.76 | 6.7 ± 3 | 11.1 | 56 ± 6.7 | 78 ± 37 | 89 ± 9.3 | 6.45 | 13.7 | > 50 | 74.3
2 | COc1ccc(/C=C2\CN(C(=O)C(=O)N3C/C(=C\c4ccc(OC)cc4)C(=O)/C(=C/c4ccc(OC)cc4)C3)C/C(=C\c3ccc(OC)cc3)C2=O)cc1 [Compound 2h] | 15 ± 0.42 | >5.45 | 7.8 ± 1.3 | >10.5 | 9.2 ± 4.7 | >8.88 | 9.6 ± 0.17 | >8.51 | 82 ± 14 | 63 ± 8 | > 100 | 10.4 | >8.34 | > 50 | > 81.7
3 | CN(C)c1ccc(/C=C2\CN(C(=O)C(=O)N3C/C(=C\c4ccc(N(C)C)cc4)C(=O)/C(=C/c4ccc(N(C)C)cc4)C3)C/C(=C\c3ccc(N(C)C)cc3)C2=O)cc1 [Compound 2i] | > 100 | ~1.00 | > 100 | ~1.00 | > 100 | ~1.00 | > 100 | ~1.00 | > 100 | > 100 | > 100 | > 100 | ~1.00 | > 50 | > 100
